Data published in article PMC6092189 (Nature structural & molecular biology, 2018).

Target: human β-cardiac myosin (Homo sapiens, UniProt P12883)
Test: single-molecule harmonic force spectroscopy dose titration
Type: binding

Sequence of human β-cardiac myosin (P12883 1-808): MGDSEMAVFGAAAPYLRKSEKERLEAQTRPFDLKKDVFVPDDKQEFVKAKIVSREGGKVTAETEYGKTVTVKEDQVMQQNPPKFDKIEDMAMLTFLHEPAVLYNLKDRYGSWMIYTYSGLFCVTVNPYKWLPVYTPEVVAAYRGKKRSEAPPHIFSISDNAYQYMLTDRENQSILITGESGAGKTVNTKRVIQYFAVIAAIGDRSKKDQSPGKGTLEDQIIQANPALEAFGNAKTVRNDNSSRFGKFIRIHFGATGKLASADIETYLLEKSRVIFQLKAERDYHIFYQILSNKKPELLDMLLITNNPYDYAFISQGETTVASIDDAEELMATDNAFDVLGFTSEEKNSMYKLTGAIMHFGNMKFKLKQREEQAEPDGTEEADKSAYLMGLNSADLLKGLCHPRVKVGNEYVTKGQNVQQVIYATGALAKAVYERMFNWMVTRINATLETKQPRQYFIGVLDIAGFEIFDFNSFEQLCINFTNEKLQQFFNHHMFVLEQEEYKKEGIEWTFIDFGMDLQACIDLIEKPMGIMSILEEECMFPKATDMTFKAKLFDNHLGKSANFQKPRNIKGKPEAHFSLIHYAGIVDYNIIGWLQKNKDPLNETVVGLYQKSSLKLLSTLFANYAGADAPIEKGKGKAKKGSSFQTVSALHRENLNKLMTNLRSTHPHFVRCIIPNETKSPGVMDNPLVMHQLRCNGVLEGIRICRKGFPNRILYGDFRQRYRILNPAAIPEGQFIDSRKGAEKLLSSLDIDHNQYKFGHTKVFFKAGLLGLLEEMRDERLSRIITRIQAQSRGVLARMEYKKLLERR
Sequence of human β-cardiac myosin (P08590 2-195 partner): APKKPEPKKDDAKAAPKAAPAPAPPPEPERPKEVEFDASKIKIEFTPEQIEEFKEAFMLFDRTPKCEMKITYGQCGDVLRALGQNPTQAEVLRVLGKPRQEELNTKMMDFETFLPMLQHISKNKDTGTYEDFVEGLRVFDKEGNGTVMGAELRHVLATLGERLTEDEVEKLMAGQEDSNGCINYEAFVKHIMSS

Kd: 0.31 ± 0.05 µM
Structure (SMILES): COC(=O)N1CCN(Cc2cccc(NC(=O)Nc3ccc(C)nc3)c2F)CC1 [OM, omecamtiv mecarbil]
